Experimental data taken from patent US4956389A, “Compounds having calcium blocking activity” (priority 1982, dated 1990).
“And” between values parts separate entries of the source, which are not always exact repeats. Identical values can stand only once. Like-named read-outs stand apart in the source and are kept apart here.

Assays:
[1] = system: isolated guinea-pig atria; conditions: papaverine with verapamil; cited from earlier work
[2] = system: kidney cells in newborn hamsters; test: Inhibition of Ca2+-uptake in kidney cells in newborn hamsters; assay type: cell-based, hamster
Protocol: Cells of kidneys of newborn hamsters have been washed and then resuspended several times in concentration of 5·10^6 /cc in the medium of the following composition:
After 15 minutes of preincubation at 30° C., the reaction was made to begin by addition to the medium of ^45 CaCl2 1 mM (0.1μCi/cc). The concentrations at 0 period of time were the concentrations determined two minutes after the addition. The other controls were carried out after 5 minutes, 10 minutes, and 20 minutes. The determination of [Ca^2+ ] was carried out as in the preceding experiment.

[3] = system: mitochondria of liver of rats; test: Inhibition of Ca2+-uptake in mitochondria of liver of rats; assay type: biochemical, rat; conditions: 250 μM; 20° C.; control 14.3
Protocol: The mitochondria prepared according to classical methods are diluted to a concentration of 1.5 mg/cc in a medium of incubation which has the following composition:
After a period of 15 minutes of preincubation at 20° C. there was added ^45 CaCl2 (50 n mol/mg prot.).
In a manner analogous to the preceding experiments, the concentrations determined after two minutes were called the concentration at 0 period of time. The other controls were determined after 5 minutes, after 10 minutes and after 15 minutes. For the determination of Ca^2+, the experiment was carried out in a manner analogous to the preceding experiments.
The results are reported in Table 3 as the quantity of Ca transferred per mg of protein

[4] = system: portions of the aorta; test: Contraction of aorta portions by arachidonic acid after oral administration to rabbits (studies in vivo); parameters: species or system rabbit
Protocol: Both substances YS 035 and Nicardipine have been administered orally for a period of three consecutive days to rabbits in such a manner that the last administration of each substance was carried out one hour prior to killing the animals. The portions of the aorta had then been incubated either in PRP as well as in the Krebs-Henseleit liquid.

[5] = system: rats; test: Antagonistic effect to biochemical disturbances during the post-oligemic period in rats; assay type: in vivo, rat
Protocol: Oligemia in rats is caused by simultaneous bilateral occlusion of the carotid arteries associated with a slight decrease (8-9 kPa) of blood pressure and is maintained for 60 minutes. After removal of the occlusion, the post-oligemic period is followed for several days. In this case, the observation is continued up to the third day, at the time during which the brain accumulation of Ca^++ ions reaches the maximum.
The substances YS 035 or Nicardipine respectively, are administered to rats, 1, 5, 18, 24, 42 and 71 hours after having removed the carotid occlusion. The rats are sacrificed after 72 hours and the tissues are rapidly removed in order to determine their content of water, calcium and potassium.

[6] = system: aorta of rabbits; test: Antagonistic activity on the contractions produced by arachidonic acid on the aorta of rabbits, study in vitro; parameters: species or system rabbit; conditions: for inhibition at 1 mg/kg: dose 1.0 mg·Kg^-1
Protocol: The study has been carried out by comparison with Nicardipine using autologous blood as the perfusion liquid. The addition of 0.1 mg of arachidonate to the liquid induces an isometric contraction of the aorta which is registered by a transducer. […] This phenomenon is shown by the relaxation which follows the addition of arachidonate to the perfusion blood. This effect may be noted with 0.1 mg/kg of YS 035 and 1 mg/kg of Nicardipine.

[7] = system: calcium ion flows; conditions: cited from earlier work
[8] = target: phosphodiesterase; test: Inhibition of the phosphodiesterase activity (method of K. G. Nair); assay type: biochemical; conditions: read-out: ID50 (inhibiting dose 50%); up to 10 mM
Protocol: The inhibition of phosphodiesterase activity of YS 035 and of papaverine has been assessed according to the method of K. G. Nair (Biochemistry, 5, 150, 1966).
It has been used a medium containing:
2.5 ml of buffer tris-HCl 0.1M pH 7.4;
50 μl CAMP "Sigma" (1 mg/ml);
5 μl Adenosin deaminase (2 mg/ml);
20 μl of alkaline phosphatase "Sigma" (2.6 mg/ml);
15 μl of phosphodiesterase (10 mg/ml).
YS 035 has been added up to a final concentration of 100 mM and Papaverine to a concentration of 10 mM.

[9] = system: synaptosomes of the brain of rats; test: Inhibition of the Ca2+-uptake in synaptosomes of the brain of rats; assay type: biochemical, rat; conditions: 250 μM
Protocol: The synaptosomes have been prepared from an homogenate of the brain of rats by centrifugation in the gradient of Filcoll at 23,500 rpm for a period of 30 minutes and diluted to 1.5 mg/cc in the medium constituted by:
After 15 minutes of preincubation, ^45 CaCl2, final concentration 1 mM (0.2μCi/cc is added to the medium).
The first determination has been carried out two minutes after the addition. […] After each period, the reaction has been stopped by centrifugation and the radioactivity has been determined in the supernatant as well as in the pellet. The latter had been denatured previously with PCA, neutralized and subsequently centrifuged.

[10] = system: phosphodiesterases; conditions: cited from earlier work

COc1ccc(CCN(C)CCCC(C#N)(c2ccc(OC)c(OC)c2)C(C)C)cc1OC (centres unmarked) [verapamil]
interaction on the slow entry flows sustained by calcium ions (in words) [1]: mutually antagonistic

COC(=O)C1=C(C)NC(C)=C(C(=O)OC)C1c1ccccc1[N+](=O)[O-] [Nifedipine, reference compound]
Ca2+-uptake ([2]; 250 μM, 30° C., control 11.9): 7.9 n g ions/mg prot/15'
percent change in Ca2+-uptake versus control at 250 µM ([2]; Mesocricetus auratus, 0.25 h, 15 min): -33.6%
Ca2+-uptake [3]: 9.5 n g ions/mg prot.

COC(=O)C1=C(C)NC(C)=C(C(=O)OCCN(C)Cc2ccccc2)C1c1cccc([N+](=O)[O-])c1 (centres unmarked) [Nicardipine, reference compound]
Amplitude of contraction, medium Krebs, individual values ([4]; 1 mg·Kg^-1 P.O., Krebs, controls 12 ± 2.3): -30 mm and -10 mm
Amplitude of contraction, PRP, individual values ([4]; 1 mg·Kg^-1 P.O., PRP, controls 30 ± 8.0): +24 mm and +55 mm
site of action (in words) ([4]; aortic endothelial level, particularly PGI2): act directly on the synthesis of prostaglandin
Cerebral concentration, Ca++ ([5]; 3 mg·Kg^-1 P.O. 7×, 72 h, post-oligemic controls 28.2 ± 3.22): 19.3 ± 4.92 mmol·Kg^-1 of dry substance
Cerebral concentration, H2O ([5]; 3 mg·Kg^-1 P.O. 7×, 72 h, post-oligemic controls 80.1 ± 0.37): 79.2 ± 0.42%
Cerebral concentration, K+ ([5]; 3 mg·Kg^-1 P.O. 7×, 72 h, post-oligemic controls 366.2 ± 12.58): 368.5 ± 19.69 mmol·Kg^-1 of dry substance
intracellular accumulation of Ca++ ions (in words) ([5]; rat, in vivo): much less significant
Contraction of the first portion of the aorta ([6]; N = 4): 38 ± 4.9 mm
inhibition at 0.01 mg/kg ([6]; Oryctolagus cuniculus, dose 0.01 mg·Kg^-1, read-out: Contraction of the second and third portion of the aorta, % Variation): 6%
inhibition at 0.1 mg/kg ([6]; Oryctolagus cuniculus, dose 0.1 mg·Kg^-1, read-out: Contraction of the second and third portion of the aorta, % Variation): 48 ± 15.5%
inhibition at 1 mg/kg ([6]; Oryctolagus cuniculus, read-out: Contraction of the second and third portion of the aorta, % Variation): 162%
inhibition at 1 mg/kg ([6]; Oryctolagus cuniculus, second and third portion, read-out: % Variation, small contractions observed occasionally prior to relaxation (value in brackets)): 84%
minimal effective dose ([6]; Oryctolagus cuniculus, autologous blood perfusion, 0.1 mg arachidonate, read-out: dose at which relaxation following the addition of arachidonate is noted): 1 mg/kg
inhibitory effect on the contraction produced by the arachidonate (in words) ([6]; YS 035 compared with Nicardipine): comparable

COc1ccc(Cc2nccc3cc(OC)c(OC)cc23)cc1OC [Papaverine]
effect on calcium ion flows (in words) ([7]; at the lower concentrations): stimulation of calcium ion flows
concentration of antagonism on the calcium ion [7]: about 10^-4 M
calcium antagonistic activity (in words) ([7]; conclusion from literature): totally devoid of calcium antagonistic activity
IC50 [8]: 40 µM
inhibitory activity on the calcium uptake (in words) [9]: completely devoid of calcium antagonistic activity
Ca2+-uptake ([9]; 45CaCl2 1 mM, control 80 ± 7): 79 ± 5 n g ions/mg prot/15 min
main biochemical action (in words) [10]: inhibition of phosphodiesterases
interaction on the slow entry flows sustained by calcium ions (in words) [1]: mutually antagonistic
